Experimental findings from patent US11685744B2, “CDK inhibitors and their use as pharmaceuticals” (Prelude Therapeutics, Incorporated, priority 2020, dated 2023) are described below.

The target of data set [1] is CDK4/Cyclin D1 (Homo sapiens (Human), UniProt P11802). Description: CDK4/CyclinD1 enzymatic activity assay (TR-FRET). Type of data set: biochemical. The note with it: ATP 2 mM, read-out: CDK4_D1 IC50. Put shortly:
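Insect-cell CDK4/Cyclin D1 (1 nM) with ULight-4E-BP1 (100 nM) and 2 mM ATP in HEPES pH 7.4 buffer, preincubated 20 min with compound (9-dose, 3-fold dilutions); 10 mM MgCl2 started the reaction, run 60 min at 37 °C. EDTA/Eu-anti-phospho-4E-BP1 TR-FRET detection; IC50 from 4-parameter Hill fit.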

The target of data set [2] is CDK6/Cyclin D1 (Homo sapiens (Human), UniProt Q00534). Description: CDK6/CyclinD1 enzymatic activity assay (TR-FRET). Type of data set: biochemical. Conditions: ATP 250 μM, read-out: CDK6_D1 IC50. The procedure: CDK6/CyclinD1 Enzymatic Activity Assay
CDK6/Cyclin D1, sequence (Q00534 whole entry): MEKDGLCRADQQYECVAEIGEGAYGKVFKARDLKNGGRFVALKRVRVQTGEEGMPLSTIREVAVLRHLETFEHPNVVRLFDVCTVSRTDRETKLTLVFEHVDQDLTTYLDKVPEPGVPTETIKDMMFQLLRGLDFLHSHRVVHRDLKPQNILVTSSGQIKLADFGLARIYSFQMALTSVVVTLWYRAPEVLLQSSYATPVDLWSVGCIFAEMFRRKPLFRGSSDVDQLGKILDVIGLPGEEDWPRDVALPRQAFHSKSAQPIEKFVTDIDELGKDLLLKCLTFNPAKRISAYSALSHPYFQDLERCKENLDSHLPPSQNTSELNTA
CDK6/Cyclin D1, sequence (P24385 whole entry partner): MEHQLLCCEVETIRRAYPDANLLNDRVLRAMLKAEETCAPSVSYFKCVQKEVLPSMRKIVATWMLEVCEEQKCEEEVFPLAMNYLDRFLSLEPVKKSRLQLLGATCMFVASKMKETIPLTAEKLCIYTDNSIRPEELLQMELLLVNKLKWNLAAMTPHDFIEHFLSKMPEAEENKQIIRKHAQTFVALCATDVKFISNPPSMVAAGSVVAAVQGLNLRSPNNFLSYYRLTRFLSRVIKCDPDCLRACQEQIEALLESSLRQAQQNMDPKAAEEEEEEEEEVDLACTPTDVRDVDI
The inhibitory activity of compounds was evaluated in vitro using TR-FRET assay with white 384-well low volume microplate (Greiner Bio-One). CDK6/Cyclin D1 catalyzed phosphorylation of peptide in the presence and absence of compounds was measured and used in IC50 determination. Recombinant protein complex CDK6/Cyclin D1, expressed from insect cell, was purchased from ProQinase. Testing compounds were dissolved in DMSO at 0.1 mM and tested in 9-dose IC50 mode. The reaction mixture was prepared by mixing CDK6/Cyclin D1 (1 nM final), ULight-4E-BP1 (100 nM final, Perkinelmer, TRF0128-D), and ATP (250 μM final) in assay buffer (20 mM of HEPES pH 7.4, 1 mM of EGTA, 0.05% BSA, 0.005% Tween 20, and 1 mM TCEP). The compound of interest in DMSO was added to each well in 3-fold serial dilution by dispenser (TECAN D300E). After 20 minutes preincubation at room temperature, 0.1 μL MgCl2 (10 mM final) was added to initiate the reaction. Following a 60 minutes incubation at 37° C., the reaction was stopped by addition of 2 μL of quenching buffer consisting of Lance detection buffer (Perkinelmer CR97-100C), 2 nM LANCE Ultra Europium-anti-P-4E-BP1 (Perkinelmer, TRF0216-D), 10 mM EDTA, and incubate at room temperature for additional 60 minutes in dark. The reaction signal was measured by Envision multimode plate reader (PerkinElmer, 2102-0010). IC50 values were determined by fitting the data to the standard 4 parameters with Hill Slope using GraphPad Prism software.

Data set [3] deals with MCF7 adenocarcinoma cell line. Description: Cell proliferation studies in MCF7 cells (ATP-Lite, 10 days). Format: cell-based. The note with it: Homo sapiens, 240 h, read-out: PROLIFERATION_CTG_MCF7 IC50. The essentials:
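Cells were seeded at 100 or 200 per well in DMEM with 10% FBS and dosed in quadruplicate over a 9-point 3-fold dilution. Incubation lasted 10 days at 37 °C, with media exchange and re-dosing on day 5. Viability was read by ATP-Lite luminescence and normalised to background and DMSO, giving IC50.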

Data set [4] in a line: Brain-to-plasma ratio (Kp) determination in Sprague-Dawley rats. The note with it: male, rat, po, 10 mg/kg.
Where [5] appears, read: brain (homogenate) versus plasma.

CDK4/Cyclin D1, sequence (P11802 whole entry): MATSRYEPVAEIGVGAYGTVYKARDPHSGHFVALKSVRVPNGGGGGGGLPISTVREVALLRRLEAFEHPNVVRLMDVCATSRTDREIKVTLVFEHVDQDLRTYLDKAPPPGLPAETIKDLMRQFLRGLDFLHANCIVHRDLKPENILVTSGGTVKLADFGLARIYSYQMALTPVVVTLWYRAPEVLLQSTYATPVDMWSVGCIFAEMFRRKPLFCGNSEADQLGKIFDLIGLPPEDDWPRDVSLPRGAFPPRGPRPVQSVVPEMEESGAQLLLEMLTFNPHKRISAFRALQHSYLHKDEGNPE
CDK4/Cyclin D1, sequence (P24385 whole entry partner): as the sequence (P24385 whole entry partner) above

For the compound `Cc1c(-c2nc(Nc3ccc(C4CCCN(C)C4)cn3)ncc2F)sc2c1ncn2C(C)C` (single isomer, unassigned) [Example 125, 5-Fluoro-N-[5-[-1-methylpiperidin-3-yl]pyridin-2-yl]-4-(6-methyl-3-propan-2-ylthieno[2,3-d]imidazol-5-yl)pyrimidin-2-amine], the IC50 was at most 20 nM in data set [1], at most 20 nM in data set [2] and 20 to 200 nM in data set [3]. The Kp at 4 h in data set [4] (setting [5]) fell in the range of 1 to 3.

As to `CCN1CCN(c2ccc(Nc3ncc(F)c(-c4sc5c(nc(C)n5C5CCCC5)c4C)n3)nc2)CC1` [Example 1, 4-(3-Cyclopentyl-2,6-dimethyl-3H-thieno[2,3-d]imidazol-5-yl)-N-(5-(4-ethylpiperazin-1-yl)pyridin-2-yl)-5-fluoropyrimidin-2-amine], the results for the IC50 in data set [1], in data set [2] and in data set [3] were at most 20 nM, 20 to 200 nM and 20 to 200 nM, respectively. The Kp at 4 h in data set [4] (setting [5]) lay in the range of 1 to 3.

As for `CCN1CCN(c2ccc(Nc3ncc(F)c(-c4sc5c(nc(C)n5C(C)C)c4C)n3)nc2)CC1` [Example 2, N-(5-(4-Ethylpiperazin-1-yl)pyridin-2-yl)-5-fluoro-4-(3-isopropyl-2,6-dimethyl-3H-thieno[2,3-d]imidazol-5-yl)pyrimidin-2-amine], the IC50 in data set [1], in data set [2] and in data set [3] was at most 20 nM in each case. Also, the Kp at 4 h in data set [4] (setting [5]) is 1 to 3.

For the compound `CCN1CCN(Cc2ccc(Nc3ncc(F)c(-c4sc5c(nc(C)n5C(C)C)c4C)n3)nc2)CC1` [Example 3, N-(5-((4-Ethylpiperazin-1-yl)methyl)pyridin-2-yl)-5-fluoro-4-(3-isopropyl-2,6-dimethyl-3H-thieno[2,3-d]imidazol-5-yl)pyrimidin-2-amine], the IC50 was at most 20 nM in data set [1], 20 to 200 nM in data set [2] and 20 to 200 nM in data set [3]. In addition, in data set [4] (setting [5]), the Kp at 4 h was under 1.

`CCN1CCN(c2ccc(Nc3ncc(F)c(-c4sc5c(nc(C)n5C5CCC5)c4C)n3)nc2)CC1` [Example 4, 4-(3-Cyclobutyl-2,6-dimethylthieno[2,3-d]imidazol-5-yl)-N-[5-(4-ethylpiperazin-1-yl)pyridin-2-yl]-5-fluoro-pyrimidin-2-amine]: the IC50 in data set [1] was at most 20 nM; in data set [2], at most 20 nM; in data set [3], 20 to 200 nM. In addition, in data set [4] (setting [5]), the Kp at 4 h lay within 1 to 3.

In the case of `CCN1CCC(c2ccc(Nc3ncc(F)c(-c4sc5c(nc(C)n5C5CCC5)c4C)n3)nc2)CC1` [Example 8, 4-(3-Cyclobutyl-2,6-dimethyl-3H-thieno[2,3-d]imidazol-5-yl)-N-(5-(1-ethylpiperidin-4-yl)pyridin-2-yl)-5-fluoro-pyrimidin-2-amine], the values for the IC50 in data set [1] and in data set [3] were at most 20 nM and 20 to 200 nM, respectively. For the same compound, in data set [4] (setting [5]), the Kp at 4 h was in the range of 1 to 3.

For the compound `Cc1c(-c2nc(Nc3ccc(N4CCN(C)CC4)cn3)ncc2F)sc2c1nc(C)n2C(C)C` [Example 9, 5-Fluoro-4-(3-isopropyl-2,6-dimethyl-3H-thieno[2,3-d]imidazol-5-yl)-N-(5-(4-methylpiperazin-1-yl)pyridin-2-yl)pyrimidin-2-amine], the IC50 in data set [1], in data set [2] and in data set [3] was at most 20 nM throughout. In data set [4] (setting [5]), the Kp at 4 h is 1 to 3.

As for `CCN1CC2(C1)CN(c1ccc(Nc3ncc(F)c(-c4cc5nccc(C(C)(C)O)c5s4)n3)nc1)C2` [Example 21, 2-[2-[2-[[5-(6-Ethyl-2,6-diazaspiro[3.3]heptan-2-yl)pyridin-2-yl]amino]-5-fluoropyrimidin-4-yl]thieno[3,2-b]pyridin-7-yl]propan-2-ol], the IC50 in data set [1] was at most 20 nM; in data set [3] it was 20 to 200 nM. The Kp at 4 h in data set [4] (brain / plasma) is under 1.

`CCN1CC2(C1)CN(c1ccc(Nc3ncc(F)c(-c4cc5nccc(C(C)C)c5s4)n3)nc1)C2` [Example 23, N-[5-(6-Ethyl-2,6-diazaspiro[3.3]heptan-2-yl)pyridin-2-yl]-5-fluoro-4-(7-propan-2-ylthieno[3,2-b]pyridin-2-yl)pyrimidin-2-amine]: the IC50 in data set [1] is at most 20 nM; in data set [2] it was 20 to 200 nM; in data set [3] it was 20 to 200 nM. The partition ratio (Kp) at 4 h in data set [4] (setting [5]) is over 3.

For the compound `CCN1CCN(c2ccc(Nc3ncc(F)c(-c4cc5c(s4)c(C(C)C)cc[n+]5[O-])n3)nc2)CC1` [Example 50, N-[5-(4-Ethylpiperazin-1-yl)pyridin-2-yl]-5-fluoro-4-(4-oxido-7-propan-2-ylthieno[3,2-b]pyridin-4-ium-2-yl)pyrimidin-2-amine], the IC50 in data set [1], in data set [2] and in data set [3] was at most 20 nM throughout. In addition, the Kp at 4 h in data set [4] (setting [5]) lay within 1 to 3.

Regarding `Cc1c(-c2nc(Nc3ccc(N4CCN(C)CC4)cn3)ncc2F)sc2c(C(C)C)cn(C)c(=O)c12` [Example 51, 2-[5-Fluoro-2-[[5-(4-methylpiperazin-1-yl)pyridin-2-yl]amino]pyrimidin-4-yl]-3,5-dimethyl-7-propan-2-ylthieno[3,2-c]pyridin-4-one], the IC50 in data set [1] is at most 20 nM; in data set [2] it was at most 20 nM; in data set [3] it was 20 to 200 nM. Moreover, the Kp at 4 h in data set [4] (brain / plasma) was over 3.

`CCN1CC2(C1)CN(c1ccc(Nc3ncc(F)c(-c4sc5c(nc(C)n5C(C)C)c4C)n3)nc1)C2` [Example 52, 4-(2,6-Dimethyl-3-propan-2-ylthieno[2,3-d]imidazol-5-yl)-N-[5-(6-ethyl-2,6-diazaspiro[3.3]heptan-2-yl)pyridin-2-yl]-5-fluoropyrimidin-2-amine]: the IC50 in data set [1], in data set [2] and in data set [3] was at most 20 nM in each case. The Kp at 4 h in data set [4] (setting [5]) is 1 to 3.

With `[2H]C([2H])([2H])n1cc(C(C)C)c2sc(-c3nc(Nc4ccc(C5CCN(C)CC5)cn4)ncc3F)c(C)c2c1=O` [Example 85, 2-(5-Fluoro-2-((5-(1-methylpiperidin-4-yl)pyridin-2-yl)amino)pyrimidin-4-yl)-7-isopropyl-3-methyl-5-(methyl-d3)thieno[3,2-c]pyridin-4(5H)-one], the IC50 in data set [1] was at most 20 nM; in data set [3], 20 to 200 nM. Besides, the Kp at 4 h in data set [4] (setting [5]) was over 3.

With `Cc1c(-c2nc(Nc3ccc(C4CN(C)C4)cn3)ncc2F)sc2c1nc(C)n2C(C)C` [Example 108, 5-Fluoro-4-(3-isopropyl-2,6-dimethyl-3H-thieno[2,3-d]imidazol-5-yl)-N-(5-(1-methylazetidin-3-yl)pyridin-2-yl)pyrimidin-2-amine], the IC50 in data set [1] was at most 20 nM; in data set [2], 20 to 200 nM; in data set [3], 20 to 200 nM.

In the case of `CCN1CC2(C1)CN(c1ccc(Nc3ncc(F)c(-c4cc5c(=O)n(C)nc(C6CN(C(=O)OC(C)(C)C)C6)c5s4)n3)nc1)C2` [Example 109, tert-Butyl 3-(2-(2-((5-(6-ethyl-2,6-diazaspiro[3.3]heptan-2-yl)pyridin-2-yl)amino)-5-fluoropyrimidin-4-yl)-5-methyl-4-oxo-4,5-dihydrothieno[2,3-d]pyridazin-7-yl)azetidine-1-carboxylate], the IC50 in data set [1] is at most 20 nM; in data set [2] it was 20 to 200 nM; in data set [3], 20 to 200 nM.

Consider `CCN1CCN(c2ccc(Nc3ncc(F)c(-c4sc5c(C(C)C)ccnc5c4C(F)(F)F)n3)nc2)CC1` [Example 121, N-[5-(4-Ethylpiperazin-1-yl)pyridin-2-yl]-5-fluoro-4-[7-propan-2-yl-3-(trifluoromethyl)thieno[3,2-b]pyridin-2-yl]pyrimidin-2-amine], for which the values for the IC50 in data set [1], in data set [2] and in data set [3] were at most 20 nM, 20 to 200 nM and 20 to 200 nM, respectively.
